Activity calls are given as the source filed them. No cut-off for these calls is given here.
Experiments:
[1] = biological target: Sphingosine 1-phosphate receptor 1 (Homo sapiens, UniProt P21453); test: Agonist activity at SIP1 receptor by tango assay; format: functional
[2] = biological target: Sphingosine 1-phosphate receptor 3 (Homo sapiens, UniProt Q99500); test: Agonist activity at human SIP3 receptor assessed as calcium mobilization by GeneBLAzer assay; format: functional
[3] = Ratio of drug level in brain to blood in iv dosed mouse after 1 hr; format: ADME, organism-based; details: read-out: BBR
[4] = Ratio of drug level in brain to blood in iv dosed mouse after 4 hrs; format: ADME, organism-based; details: read-out: BBR
[5] = Half life in mouse at 2 mg/kg, po; format: ADME, organism-based; parameters: dose 2 mg/kg, route oral; details: in vivo
[6] = Cmax in mouse at 2 mg/kg, po; format: ADME, organism-based; parameters: dose 2 mg/kg, route oral; details: in vivo
[7] = Oral bioavailability in mouse at 2 mg/kg; format: ADME, organism-based; details: in vivo
[8] = AUC (0 to 24 hrs) in mouse at 2 mg/kg, po; format: ADME, organism-based; parameters: time < 24 hr, dose 2 mg/kg, route oral; details: plasma
[9] = Clearance in iv dosed mouse; format: ADME, organism-based; details: in vivo
[10] = Volume of distribution in iv dosed mouse; format: ADME, organism-based; details: in vivo
Mus musculus [11] = test: Lymphopenia activity in mouse assessed as reduction in blood lymphocytes at 1 mg/kg after 4 hrs relative to control; format: functional; parameters: scale not given: the % may be the effect or the level left
Mus musculus [12] = test: Lymphopenic activity in mouse assessed as reduction in blood lymphocytes at 1 mg/kg after 24 hrs relative to control; format: functional, organism-based; parameters: dose 1 mg/kg
Homo sapiens = species on record: Homo sapiens; test: Selectivity ratio of EC50 for SIP1 receptor to EC50 for human SIP3 receptor
Mus musculus [13] = species on record: Mus musculus; test: Lymphopenic activity in C57BL/6 mouse assessed as reduction in blood lymphocytes relative to control; format: functional; parameters: scale not given: the % may be the effect or the level left
Mus musculus [14] = species on record: Mus musculus; test: Lymphopenic activity in C57BL/6 mouse assessed as reduction in blood lymphocytes after 4 to 8 weeks relative to control; format: functional, organism-based

Chain of Sphingosine 1-phosphate receptor 3 (Q99500 whole entry): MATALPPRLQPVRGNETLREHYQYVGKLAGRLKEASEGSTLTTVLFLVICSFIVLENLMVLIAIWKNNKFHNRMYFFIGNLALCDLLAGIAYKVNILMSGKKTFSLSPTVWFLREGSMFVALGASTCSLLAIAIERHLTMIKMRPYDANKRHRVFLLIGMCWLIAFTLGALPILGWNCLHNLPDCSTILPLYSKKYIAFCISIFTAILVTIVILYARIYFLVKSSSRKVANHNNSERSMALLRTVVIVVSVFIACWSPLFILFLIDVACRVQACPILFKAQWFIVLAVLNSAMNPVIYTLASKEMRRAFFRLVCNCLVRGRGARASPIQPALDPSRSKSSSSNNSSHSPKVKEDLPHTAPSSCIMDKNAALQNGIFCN
Chain of Sphingosine 1-phosphate receptor 1 (P21453 whole entry): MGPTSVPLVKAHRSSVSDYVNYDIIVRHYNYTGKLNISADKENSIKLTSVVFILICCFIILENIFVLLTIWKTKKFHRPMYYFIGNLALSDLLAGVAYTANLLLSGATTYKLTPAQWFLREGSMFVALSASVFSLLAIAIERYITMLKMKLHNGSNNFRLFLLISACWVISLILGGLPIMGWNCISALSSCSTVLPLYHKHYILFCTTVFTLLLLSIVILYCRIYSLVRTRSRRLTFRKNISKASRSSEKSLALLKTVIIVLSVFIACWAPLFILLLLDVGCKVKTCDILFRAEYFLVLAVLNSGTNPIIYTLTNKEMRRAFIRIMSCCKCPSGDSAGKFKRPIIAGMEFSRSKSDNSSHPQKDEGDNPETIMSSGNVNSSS

| SMILES | EC50 [1] | EC50 [2] | other results |
| --- | --- | --- | --- |
| O=C(O)CN1CCN(c2ccc3oc(-c4ccc(-c5ccccc5)c(C(F)(F)F)c4)nc3c2)CC1 | 0.398 nM | 2000 nM |  |
| O=C(O)CCCCCc1cnc2oc(-c3cc(-c4ccccc4)c(C(F)(F)F)s3)nc2c1 | 398 nM | > 10000 nM |  |
| CC(C)Oc1ncc(-c2nc3cc(CCCCCC(=O)O)cnc3o2)cc1C(F)(F)F | 6.31 nM | > 10000 nM |  |
| O=C(O)C1CCN(CCCc2ccc3oc(-c4ccc(-c5ccccc5)c(C(F)(F)F)c4)nc3c2)CC1 | 0.794 nM | 501 nM |  |
| O=C(O)C1CCN(c2ccc3oc(-c4ccc(-c5ccccc5)c(C(F)(F)F)c4)nc3c2)CC1 | 0.631 nM | > 3160 nM | Kp at 1 h [3]: 1.45; Kp at 4 h [4]: 3.73; half-life [5]: 324 min; Cmax [6]: 1070 ng/mL; bioavailability [7]: > 100%; AUC(0-t) at 24 h [8]: 10300 ng·h/mL; clearance [9]: 3.68 mL/min/kg; Vd [10]: 1.48 L/kg; Activity (Mus musculus [11]): 37%; Activity (Mus musculus [12]): inactive |
| O=C(O)C1CCCN(CCCc2ccc3oc(-c4ccc(-c5ccccc5)c(C(F)(F)F)c4)nc3c2)C1 (centres undefined) | 0.501 nM | 2000 nM |  |
| CC(C)Oc1ccc(-c2nc3cc(CC(=O)O)cnc3o2)cc1Cl | > 3160 nM | > 10000 nM |  |
| CC(C)Oc1ccc(-c2nc3cc(CCCC(=O)O)cnc3o2)cc1Cl | 1000 nM | > 10000 nM |  |
| O=C(O)CCCCCc1ccc2oc(-c3ccc(-c4ccccc4)c(C(F)(F)F)c3)nc2c1 | 0.398 nM | > 10000 nM |  |
| CC(C)Oc1ccc(-c2nc3cc(C(=O)O)cnc3o2)cc1Cl | > 3160 nM | > 10000 nM |  |
| O=C(O)CCCCCc1cn2cc(-c3ccc(-c4ccccc4)c(C(F)(F)F)c3)nc2s1 | 63.1 nM | > 10000 nM |  |
| O=C(O)CCCCCc1cnc2sc(-c3ccc(-c4ccccc4)c(C(F)(F)F)c3)nc2c1 | 10 nM | > 10000 nM |  |
| O=C(O)CCCCCc1cnc2oc(-c3ccc(-c4ccccc4)c(C(F)(F)F)c3)nc2c1 | 0.316 nM | > 10000 nM |  |
| O=C(O)C1CN(CCCc2ccc3oc(-c4ccc(-c5ccccc5)c(C(F)(F)F)c4)nc3c2)C1 | 0.1 nM | 126 nM |  |
| O=C(O)CNCCCc1ccc2oc(-c3ccc(-c4ccccc4)c(C(F)(F)F)c3)nc2c1 | 0.0316 nM | 251 nM | Ratio EC50 (Homo sapiens): > 1000 |
| O=C(O)C1CCN(CCc2ccc3oc(-c4ccc(-c5ccccc5)c(C(F)(F)F)c4)nc3c2)CC1 | 0.158 nM | 501 nM |  |
| CC(C)Oc1ncc(-c2nc3cc(CCCCCC(=O)O)cnc3o2)cc1Cl | 1000 nM | > 10000 nM |  |

| SMILES | EC50 [1] | EC50 [2] | other results |
| --- | --- | --- | --- |
| CC(C)Oc1ccc(-c2nc3cc(CCC(=O)O)cnc3o2)cc1Cl | > 3160 nM | > 10000 nM |  |
| CC(C)Oc1ccc(-c2nc3cc(CCCCCC(=O)O)cnc3o2)cc1Cl | 158 nM | > 10000 nM |  |
| O=C(O)CN1CCC(c2ccc3oc(-c4ccc(-c5ccccc5)c(C(F)(F)F)c4)nc3c2)CC1 | 1 nM | 2000 nM |  |
| O=C(O)CCCCCc1ccn2cc(-c3ccc(-c4ccccc4)c(C(F)(F)F)c3)nc2c1 | 398 nM | > 10000 nM |  |
| CC(C)Oc1ccc(-c2nc(-c3cccc4c3ccn4CCC(=O)O)no2)cc1Cl | 0.01 nM |  | Ratio EC50 (Homo sapiens): 1e+06 |
| CC(C)Oc1ccc(-c2nc3cc(CCCCCC(=O)O)cnc3o2)cc1C(F)(F)F | 20 nM | > 10000 nM |  |
| O=C(O)CCNCCc1ccc2oc(-c3ccc(-c4ccccc4)c(C(F)(F)F)c3)nc2c1 | 0.0316 nM | 200 nM |  |
| O=C(O)CC1CCN(c2ccc3oc(-c4ccc(-c5ccccc5)c(C(F)(F)F)c4)nc3c2)CC1 | 1.26 nM | 1260 nM |  |
| CC(C)Oc1ccc(-c2nc3cc(CCCCC(=O)O)cnc3o2)cc1Cl | 158 nM | > 10000 nM |  |
| O=C(O)CCN1CCC(c2ccc3oc(-c4ccc(-c5ccccc5)c(C(F)(F)F)c4)nc3c2)CC1 | 0.0794 nM | 1000 nM |  |
| O=C(O)C1CN(CCc2ccc3oc(-c4ccc(-c5ccccc5)c(C(F)(F)F)c4)nc3c2)C1 | 0.398 nM | 794 nM |  |
| CCCCCCCCc1ccc(CCC(N)(CO)CO)cc1.Cl [FINGOLIMOD HYDROCHLORIDE] |  |  | Activity (Mus musculus [13]): 20%; Activity (Mus musculus [14]): inactive |
| O=C(O)CCCCCc1ccc2[nH]c(-c3ccc(-c4ccccc4)c(C(F)(F)F)c3)cc2c1 | 126 nM | > 10000 nM |  |
| O=C(O)CCCCCc1ccn2nc(-c3ccc(-c4ccccc4)c(C(F)(F)F)c3)nc2c1 | 126 nM | > 10000 nM |  |
| CN(CCCc1ccc2oc(-c3ccc(-c4ccccc4)c(C(F)(F)F)c3)nc2c1)CC(=O)O | 0.316 nM | 1000 nM |  |
| O=C(O)C1CN(c2ccc3oc(-c4ccc(-c5ccccc5)c(C(F)(F)F)c4)nc3c2)C1 | 10 nM | 2000 nM |  |
| CC(C)Oc1ccc(-c2nc(-c3cccc4c3c(Cl)cn4CCC(=O)O)no2)cc1Cl | 0.0251 nM | > 10000 nM |  |
